Laboratory results as given in PubChem BioAssay (NCI).
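Protocol summary: plate cells (96-well), add compound at 5 concentrations, incubate 48 h, interpolate endpoints linearly. GI50 is the concentration that inhibits growth by half. TGI: total growth inhibition.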

How the values were obtained:
Experiment in all cases: DTP human tumour cell line panel, 48 h
[1] = system: A498 renal
[2] = system: UACC-62 melanoma
[3] = system: SF-268 CNS
[4] = system: MOLT-4 leukemia
[5] = system: HCT-15 colon
[6] = system: SR leukemia
[7] = system: TK-10 renal
[8] = system: U251 CNS
[9] = system: ACHN renal
[10] = system: NCI-H226 lung
[11] = system: KM12 colon
[12] = system: HS 578T breast
[13] = system: MALME-3M melanoma
[14] = system: T-47D breast
[15] = system: EKVX NSCLC
[16] = system: SK-MEL-5 melanoma
[17] = system: K-562 leukemia
[18] = system: SF-539 CNS
[19] = system: NCI-H460 lung
[20] = system: NCI/ADR-RES ovarian
[21] = system: CAKI-1 renal
[22] = system: MDA-MB-435
[23] = system: SK-MEL-2 melanoma
[24] = system: COLO 205 colon
[25] = system: HT29 colon
[26] = system: CCRF-CEM leukemia
[27] = system: HCC-2998 colon
[28] = system: SW-620 colon
[29] = system: HL-60(TB) leukemia
[30] = system: UACC-257 melanoma
[31] = system: MDA-MB-231 breast
[32] = system: M14 melanoma
[33] = system: SNB-75 CNS
[34] = system: UO-31 renal
[35] = system: HOP-92 NSCLC
[36] = system: HOP-62 NSCLC
[37] = system: HCT-116 colon
[38] = system: NCI-H522 lung
[39] = system: 786-0 renal
[40] = system: NCI-H23 lung
[41] = system: DU-145 prostate
[42] = system: RPMI-8226 leukemia
[43] = system: SN12C renal
[44] = system: MCF7 breast
[45] = system: OVCAR-5 ovarian
[46] = system: IGROV1 ovarian
[47] = system: SK-MEL-28 melanoma
[48] = system: OVCAR-3 ovarian
[49] = system: OVCAR-4 ovarian
[50] = system: BT-549 breast
[51] = system: SNB-19 CNS
[52] = system: PC-3 prostate
[53] = system: SF-295 CNS
[54] = system: RXF 393 renal
[55] = system: OVCAR-8 ovarian
[56] = system: LOX IMVI melanoma
[57] = system: SK-OV-3 ovarian
[58] = system: A549 NSCLC
[59] = system: MDA-N

C#Cc1cccc(Nc2nc(Cl)nc3cc(NC(=O)CCl)ccc23)c1
GI50 [1]: 3.13 µM | TGI [1]: 6.32 µM | GI50 [2]: 0.82 µM | TGI [2]: 3.26 µM | GI50 [3]: 0.557 µM | TGI [3]: 1.48 µM | GI50 [4]: 0.564 µM | TGI [4]: 1.64 µM | GI50 [5]: 0.592 µM | TGI [5]: 2.03 µM | GI50 [6]: 0.542 µM | TGI [6]: 1.68 µM | GI50 [7]: 1.74 µM | TGI [7]: 5.29 µM | GI50 [8]: 0.526 µM | TGI [8]: 1.14 µM | GI50 [9]: 1.48 µM | TGI [9]: 4.63 µM | GI50 [10]: 1.61 µM | TGI [10]: 5.27 µM | GI50 [11]: 1.13 µM | TGI [11]: 4.22 µM | GI50 [12]: 1.43 µM | TGI [12]: 9.17 µM | GI50 [13]: 1 µM | TGI [13]: 2.25 µM | GI50 [14]: 0.556 µM | TGI [14]: 1.65 µM | GI50 [15]: 2.12 µM | TGI [15]: 6.27 µM | GI50 [16]: 1.04 µM | TGI [16]: 3.36 µM | GI50 [17]: 0.792 µM | TGI [17]: 3.03 µM | GI50 [18]: 2.36 µM | TGI [18]: 5.59 µM | GI50 [19]: 1.44 µM | TGI [19]: 4.24 µM | GI50 [20]: 1.28 µM | TGI [20]: 13.6 µM | GI50 [21]: 1.85 µM | TGI [21]: 5.17 µM | GI50 [22]: 1.04 µM | TGI [22]: 3.83 µM | GI50 [23]: 1.16 µM | TGI [23]: 3.6 µM | GI50 [24]: 0.586 µM | TGI [24]: 1.35 µM | GI50 [25]: 0.766 µM | TGI [25]: 4.43 µM | GI50 [26]: 0.588 µM | TGI [26]: 2.47 µM | GI50 [27]: 0.7 µM | TGI [27]: 2.02 µM | GI50 [28]: 0.51 µM | TGI [28]: 1.21 µM | GI50 [29]: 1.42 µM | TGI [29]: 7.27 µM | GI50 [30]: 2.36 µM | TGI [30]: 5.82 µM | GI50 [31]: 0.758 µM | TGI [31]: 2.73 µM | GI50 [32]: 0.764 µM | TGI [32]: 2.64 µM | GI50 [33]: 1.13 µM | TGI [33]: 5.13 µM | GI50 [34]: 0.823 µM | TGI [34]: 3.15 µM | GI50 [35]: 1.23 µM | TGI [35]: 2.86 µM | GI50 [36]: 1.99 µM | TGI [36]: 5.32 µM | GI50 [37]: 0.449 µM | TGI [37]: 0.975 µM | GI50 [38]: 0.465 µM | TGI [38]: 0.897 µM | GI50 [39]: 0.449 µM | TGI [39]: 0.949 µM | GI50 [40]: 0.962 µM | TGI [40]: 3.77 µM | GI50 [41]: 0.806 µM | TGI [41]: 2.8 µM | GI50 [42]: 0.895 µM | TGI [42]: 4.61 µM | GI50 [43]: 0.637 µM | TGI [43]: 1.8 µM | GI50 [44]: 0.61 µM | TGI [44]: 3.12 µM | GI50 [45]: 1.41 µM | TGI [45]: 4.45 µM | GI50 [46]: 0.5 µM | TGI [46]: 1.12 µM | GI50 [47]: 2.85 µM | TGI [47]: 6.12 µM | GI50 [48]: 0.47 µM | TGI [48]: 0.984 µM | GI50 [49]: 0.847 µM | TGI [49]: 2.69 µM | GI50 [50]: 0.531 µM | TGI [50]: 2.57 µM | GI50 [51]: 1.68 µM | TGI [51]: 4.59 µM | GI50 [52]: 1.05 µM | TGI [52]: 4.71 µM | GI50 [53]: 3.89 µM | TGI [53]: 7.33 µM | GI50 [54]: 0.857 µM | TGI [54]: 3.38 µM | GI50 [55]: 0.754 µM | TGI [55]: 2.65 µM | GI50 [56]: 0.41 µM | TGI [56]: 0.809 µM | GI50 [57]: 2.88 µM | TGI [57]: 6.1 µM | GI50 [58]: 3.66 µM | TGI [58]: 8.51 µM

NC(=O)CN1C=CCC(C(N)=O)=C1
TGI [1]: > 100 µM | TGI [2]: > 100 µM | TGI [3]: > 100 µM | TGI [4]: > 100 µM | TGI [5]: > 100 µM | TGI [8]: > 100 µM | TGI [9]: > 100 µM | TGI [10]: > 100 µM | TGI [11]: > 100 µM | TGI [13]: > 100 µM | TGI [14]: > 100 µM | TGI [15]: > 100 µM | TGI [16]: > 100 µM | TGI [17]: > 100 µM | TGI [59]: > 100 µM | TGI [18]: > 100 µM | TGI [19]: > 100 µM | TGI [20]: > 100 µM | TGI [21]: > 100 µM | TGI [22]: > 100 µM | TGI [23]: > 100 µM | TGI [24]: > 100 µM | TGI [25]: > 100 µM | TGI [26]: > 100 µM | TGI [27]: > 100 µM | TGI [28]: > 100 µM | TGI [29]: > 100 µM | TGI [30]: > 100 µM | TGI [32]: > 100 µM | TGI [33]: > 100 µM | TGI [34]: > 100 µM | TGI [35]: > 100 µM | TGI [36]: > 100 µM | TGI [37]: > 100 µM | TGI [38]: > 100 µM | TGI [39]: > 100 µM | TGI [40]: > 100 µM | TGI [41]: > 100 µM | TGI [42]: > 100 µM | TGI [43]: > 100 µM | TGI [44]: > 100 µM | TGI [45]: > 100 µM | TGI [46]: > 100 µM | TGI [48]: > 100 µM | TGI [49]: > 100 µM | TGI [50]: > 100 µM | TGI [51]: > 100 µM | TGI [52]: > 100 µM | TGI [53]: > 100 µM | TGI [54]: > 100 µM | TGI [55]: > 100 µM | TGI [56]: > 100 µM | TGI [57]: > 100 µM | TGI [58]: > 100 µM

Cn1c(=O)sc2cc(C(=S)N3CCCCC3)ccc21
TGI [1]: > 100 µM | TGI [2]: > 100 µM | TGI [3]: > 100 µM | TGI [4]: > 100 µM | TGI [5]: > 100 µM | TGI [6]: > 100 µM | TGI [7]: > 100 µM | TGI [8]: > 100 µM | TGI [9]: > 100 µM | TGI [10]: > 100 µM | TGI [11]: > 100 µM | TGI [12]: > 100 µM | TGI [13]: 55.4 µM | TGI [15]: > 100 µM | TGI [16]: > 100 µM | TGI [17]: > 100 µM | TGI [59]: > 100 µM | TGI [18]: > 100 µM | TGI [19]: > 100 µM | TGI [20]: > 100 µM | TGI [21]: > 100 µM | TGI [22]: > 100 µM | TGI [23]: > 100 µM | TGI [24]: > 100 µM | TGI [25]: > 100 µM | TGI [26]: 43 µM | TGI [28]: > 100 µM | TGI [29]: 42.7 µM | TGI [30]: > 100 µM | TGI [31]: > 100 µM | TGI [32]: > 100 µM | TGI [33]: 86.5 µM | TGI [36]: > 100 µM | TGI [37]: > 100 µM | TGI [39]: > 100 µM | TGI [40]: > 100 µM | TGI [41]: > 100 µM | TGI [42]: > 100 µM | TGI [43]: > 100 µM | TGI [44]: > 100 µM | TGI [45]: > 100 µM | TGI [46]: > 100 µM | TGI [47]: > 100 µM | TGI [48]: > 100 µM | TGI [50]: > 100 µM | TGI [51]: > 100 µM | TGI [52]: > 100 µM | TGI [53]: > 100 µM | TGI [54]: > 100 µM | TGI [55]: > 100 µM | TGI [56]: > 100 µM | TGI [57]: > 100 µM
